Key:
[1] = tested on: Clostridium difficile infection; assay: Randomised controlled trial substudy of FMT versus vancomycin in patients with CDI: clinical outcome (symptoms, stool C. difficile toxin); format: in vivo, human
Procedure: The current study was a substudy from a randomised controlled trial (RCT) of FMT versus vancomycin for patients with CDI. Consecutive CDI subjects enrolled into this RCT were invited to participate in a substudy of assessment of fecal microbiota. Patients were included if they had three or more loose or watery stools per day for at least two consecutive days, or eight or more soft or loose stools in 48 hours, and a positive stool test for C. difficile based on a two-step testing algorithm in the hospital, a positive GDH (glutamate dehydrogenase) screening test followed by a positive PCR test of C. difficile. A total of 24 subjects with CDI and 20 healthy household controls were recruited, and stool samples at baseline were obtained for analyses of virome and bacterial microbiome. Among them, 14 CDI subjects consented to have stool samples collected serially after treatment for microbiome analysis. Nine CDI subjects were treated with FMT and five were treated with vancomycin, and they were followed up at baseline and weeks 2, 4, 10 and 16 after treatment (FIG. 6). One patient FMT6 had recurrent CDI. This patient had five previous episodes of CDI prior to FMT. Subjects in the FMT group received 5 days of vancomycin followed by donor-infused stool via nasojejunal route, and those who had standard therapy (STD) received oral vancomycin 500 mg four times per day for 10 days. A computer-generated randomisation schedule was used to assign patients to the treatment sequences. All patients kept a stool diary and were questioned about stool frequency and consistency and medication use.
Treatment response was defined as an absence of diarrhoea or persistent diarrhoea that could be explained by other causes with a negative stool test for C. difficile toxin, while relapse was defined as diarrhoea with a positive stool test for C. difficile toxin. Treatment cure is defined as symptom resolution and a negative Clostridium difficile toxin in stool until the last follow-up (last follow-up was referred to as the last stool collection time point, as shown in FIG. 6). […] CDI recipients FMT8 and FMT9 shared the same donor, and this donor was termed ‘D8’. None of the patients had received antibiotics or proton pump inhibitors after FMT.
1. C. difficile infection was defined as diarrhea (≥3 soft, loose or watery stools per day for at least 2 consecutive days or ≥8 soft or loose stools in 48 hours) and a positive stool test for C. difficile toxin; and
Family members provided donor stool for subjects randomised to FMT arm. Cure after FMT or vancomycin therapy was defined as symptom resolution and negative Clostridium difficile toxin in stool at last follow-up by PCR assay. Relapse was defined as diarrhea with a positive stool test for C. difficile toxin.
In subjects who received FMT, a nasoduodenal tube was inserted with radiology guidance. Donor feces was diluted with 500 ml of sterile saline (0.9%), blended and the supernatant was strained with filter paper and poured in a sterile bottle. Within 6 hours after collection of feces by the donor, the solution was infused through a nasoduodenal tube (2 to 3 minutes per 50 ml). The tube was removed 30 minutes after the infusion, and patients were monitored for 2 hours. In subjects with received FMT, a minimum of 50 g of donor stool was collected on the same day of infusion and used within 6 hours of collection.

[2] = tested on: enteric virome (Caudovirales, Microviridae, Anelloviridae); assay: Ultra-deep metagenomic sequencing of virus-like particle (VLP) preparations from stool: enteric virome abundance, diversity, richness, donor-derived contigs; format: in vivo, human
Procedure: VLPs were enriched from pulverised human stool, using a protocol according to previously described methods.^11 17 VLP DNAs were quantified (NanoDrop), and 1 μg of DNA was randomly fragmented by ultrasonication (Covaris) followed by library construction. The qualified libraries were amplified on cBot to generate the cluster on the flow cell (TruSeq PE Cluster Kit V3-cBot-HS, Illumina). The amplified libraries were sequenced paired end on the HiSeq 2000 System (TruSeq SBS KIT-HS V3, Illumina) (BGI, Shenzhen, China; standard 2×150 bp run), generating 20-60 million raw sequences (5-8 G raw data) per sample (sequence statistics in Table 3). Sequence processing and quality control, de novo contig assembly and taxonomy annotation were performed.
To estimate contig abundance and calculate sequence diversity, all reads were aligned to the resulting contigs using Bowtie2 (V. 2.2.9).^18 The mapped sequence counts, contig lengths and total sequence counts were used to normalise the sequence counts and represent the RPKM (reads per kilobase per million) of each sample to the contigs. These values were used to generate an operational taxonomic unit (OTU) relative abundance table, which was annotated with the taxonomy described above. The virome abundance data were imported into R 3.2.3. Richness, diversity and rarefaction calculation were performed using the estimated richness function of the phyloseq package. Diversity and richness plots were generated in GraphPad Prism (V. 6.0). Spearman correlations and their significance were calculated using the cor and cor.test functions in R, respectively. […] Correlation plots were generated using the corrplot R package. Heat maps were generated using the pheatmap R package. LEfSe linear discriminant analysis and multivariate analysis were performed.
To establish the presence of a species or a contig within a sample, the RPKM of a contig or a species is set to be >2 (a stringent criteria), so as to rule out the false-positive finding) for the contig or the species to be assured as present within a sample. In samples after FMT, if a contig or a species was not present in the recipient baseline sample but present in the corresponding donor baseline sample and in the recipient post-FMT sample, the contig or species was defined as ‘donor-derived’; if a contig or a species was not present in the corresponding donor baseline sample but detected both in the recipient baseline sample and in the recipient post-FMT sample, the contig or the species was defined as ‘recipient-exclusive’, if a contig or a species was present across the recipient baseline sample, the recipient post-FMT sample and the corresponding donor baseline sample, the contig or the species was defined as ‘donor recipient coexisted.’ To determine the abundance alteration of Caudovirales species after FMT, the species' relative abundance (RA) fold change was defined as fc=log 2(post-FMT last follow-up RA/pre-FMT baseline RA).
Approximately 200 mg of stool was suspended in 400 μl saline-magnesium buffer (0.1 M NaCl, 0.008 M MgSO4-7H2O, 0.002% gelatin, 0.05 M Tris pH7.5) by vortexing for 10 min. Stool suspensions were then cleared by centrifugation at 2,000×g to remove debris and cells. Clarified suspensions were passed through one […] followed by two […] filters to remove residual host and bacterial cells. […]

CN[C@H](CC(C)C)C(=O)N[C@H]1C(=O)N[C@@H](CC(N)=O)C(=O)N[C@H]2C(=O)N[C@H]3C(=O)N[C@H](C(=O)N[C@H](C(=O)O)c4cc(O)cc(O)c4-c4cc3ccc4O)[C@H](O)c3ccc(c(Cl)c3)Oc3cc2cc(c3O[C@@H]2O[C@H](CO)[C@@H](O)[C@H](O)[C@H]2O[C@H]2C[C@](C)(N)[C@H](O)[C@H](C)O2)Oc2ccc(cc2Cl)[C@H]1O [vancomycin]
subjects cured of CDI (responders) ([1]; median follow-up of 16 weeks, nine FMT subjects, five vancomycin patients): three of the five
Recurrence at week ([1]; subject STD1): at week 12
Outcome (till last follow-up) ([1]; subject STD1, severe CDI, follow-up 20 weeks): Recurrence
Recurrence at week ([1]; subject STD2): at week 7
Outcome (till last follow-up) ([1]; subject STD2, moderate CDI, follow-up 7 weeks): Recurrence
Outcome (till last follow-up) ([1]; subject STD3, severe CDI, follow-up 14 weeks): Cured
Outcome (till last follow-up) ([1]; subject STD4, severe CDI, follow-up 17 weeks): Cured
Outcome (till last follow-up) ([1]; subject STD5, moderate CDI, follow-up 26 weeks): Cured
virome structure over time ([2]; CDI subjects who did not respond to vancomycin): marked oscillation
virome structure over time ([2]; CDI subjects who responded to vancomycin): not significantly altered
change in Caudovirales abundance after treatment ([2]; stool of CDI subjects, pre- versus post-treatment): increased
Caudovirales diversity and richness as well as bacterial diversity and richness over the course of treatment ([2]; subjects who did not respond to vancomycin (STD1 and STD2)): substantial fluctuation
change in Caudovirales diversity or richness ([2]; subjects who responded to vancomycin (STD3, STD4, STD5)): no significant change
